Data from patent US20080262445A1, “Transdermal Delivery of Hydrophobic Bioactive Agents” (DERMATRENDS, INC., priority 2004, published 2008).
Read-outs that look alike come from different tables or passages of the source.

Assays:
[1] = Final pH of the patch; assay type: physicochemical; settings: pH of the transdermal patch
[2] = assay type: in vitro ADME; settings: human, pH 7.4
Procedure: An in vitro skin permeation study was conducted using one ondansetron transdermal patch. The formulations used to prepare these systems are listed in Table 1, which includes weight and percent weight of each component of the dried formulations. “PVPP’ refers to a commercially available polyvinyl polypyrrolidone powder, which was added in an amount sufficient to balance the liquid nature of other solubizing agents in order to maintain the physical integrity of the patch. Other suitable and generally inert powders that can be used will become apparent to those skilled in the art, given the present description. “Duratak” is a tradename and refers to a commercially available polyisobutylene adhesive liquid available from National Starch and Chemical.
Each formulation was coated on a release liner and dried in an oven at 65° C. for two hours to remove water and other solvents. […]
The in vitro permeation of ondansetron through human cadaver skin from these discs was performed using Franz diffusion cells with a diffusion area of 1 cm^2 and a receiver solution capacity of 8 ml. […] The receiver solution collected was analyzed by HPLC to determine the concentration of ondansetron. The cumulative amount of ondansetron that permeated across the human cadaver skin was calculated using the measured ondansetron concentrations in the receiver solutions, which were plotted versus time and shown in FIG. 1. […]

final patch pH [1]: 4.7 | cumulative amount of ondansetron that permeated through the skin ([2]; 24 h): 0.26 mg/cm^2 | cumulative amount of ondansetron that permeated through the skin ([2]; 51 h): 0.51 mg/cm^2
SMILES: Cc1nccn1CC1CCc2c(c3ccccc3n2C)C1=O (stereo not drawn) [ondansetron, 1,2,3,9-tetrahydro-9-methyl-3-[(2-methyl-1H-imidazol-1-yl)methyl]-4H-carbazol-4-one]
